Measured values taken from ChEMBL document CHEMBL4610043, “Design, synthesis and identification of novel, orally bioavailable non-covalent Nrf2 activators” (Bioorg Med Chem Lett, 2020).
Values after ≈ are worked out from the molar mass of the structure shown.

Tests used:
[1] = Protein binding in mouse plasma assessed as unbound fraction at 2 uM by rapid equilibrium dialysis method; assay type: ADME, cell-free
[2] = Protein binding in rat plasma assessed as unbound fraction at 2 uM by rapid equilibrium dialysis method; assay type: ADME, cell-free
[3] = Protein binding in human plasma assessed as unbound fraction at 2 uM by rapid equilibrium dialysis method; assay type: ADME, cell-free
[4] = Protein binding in mouse brain assessed as unbound fraction; assay type: ADME, tissue-based
[5] = Aqueous solubility of compound at pH 6.8 by shake flask method; assay type: physicochemical; conditions: buffer
[6] = Distribution coefficient, log D of compound at pH 7.4 by shake flask method; assay type: physicochemical; conditions: octanol/water
[7] = AUC in rat at 1 mg/kg, iv; assay type: ADME, organism-based; conditions: in vivo
[8] = Clearance in rat at 1 mg/kg, iv; assay type: ADME, organism-based; conditions: in vivo
[9] = Volume of distribution at steady state in rat at 1 mg/kg, iv; assay type: ADME, organism-based; conditions: in vivo, read-out: Vdss
[10] = Half life in rat at 1 mg/kg, iv; assay type: ADME, organism-based; conditions: in vivo
[11] = AUC in rat at 5 mg/kg, po; assay type: ADME, organism-based; conditions: in vivo
[12] = Cmax in rat at 5 mg/kg, po; assay type: ADME, organism-based; parameters: dose 5 mg/kg, route oral; conditions: in vivo
[13] = Tmax in rat at 5 mg/kg, po; assay type: ADME, organism-based; conditions: in vivo
[14] = Oral bioavailability in rat at 5 mg/kg; assay type: ADME, organism-based; conditions: in vivo
[15] = Unbound brain to plasma concentration ratio in mouse; assay type: ADME; conditions: brain and plasma, read-out: K(p,uu,brain)
[16] = Cmax in C57BL/6 mouse at 10 mg/kg, po; assay type: ADME, organism-based; parameters: dose 10 mg/kg, route oral; conditions: in vivo
[17] = fCmax In C57BL/6 mouse at 10 mg/kg, po; assay type: ADME, organism-based; conditions: in vivo
[18] = Efflux ratio of apparent permeability in MDCK-MDR1 cells; assay type: ADME, cell-based, Canis lupus familiaris; conditions: dog

Row | SMILES | fraction unbound at 2 µM [1] | fraction unbound at 2 µM [2] | fraction unbound at 2 µM [3] | fraction unbound [4] | solubility thermodynamic [5] [µg/mL] | logD [6] | AUC [7] [ng·h/mL] | clearance [8] [mL/min/kg] | Vd [9] [L/kg] | half-life [10] [h] | AUC [11] [ng·h/mL] | Cmax [12] [ng/mL] | Tmax [13] [h] | bioavailability [14] [%] | Kp uu [15] | Cmax [16] [µM] | fCmax [17] [nM] | efflux ratio [18]
1 | CCn1nnc2c(C)c([C@@H](CC(=O)O)c3ccc4c(c3)CN(C(=O)c3c(C)c(C)cc(C)c3C)CC4)ccc21 | 0.00505 | 0.00568 | 0.00708 | 0.0211 | 29.5 (≈ 56.2 µM) | 1.39 | 2510 | 6.16 | 0.707 | 3.77 | 2720 | 958 | 0.92 | 20 | 0.04 | 6.7 | 33 | 
2 | CCn1nnc2c(C)c([C@H](c3ccc4c(c3)CN(C(=O)c3c(C)c(C)cc(C)c3C)CC4)C(C)(C)C(=O)O)ccc21 |  |  |  |  |  |  |  |  |  |  |  |  |  |  |  |  |  | 104
